Experiment [1] deals with Mus musculus. Kind of experiment: Antidiabetic activity in diet-induced obese C57BL/6J mouse assessed as decrease in fasting blood glucose level at 250 to 500 nmol/kg, sc bid for 14 days fasted overnight on day 11 to 12 and measured on day 14. It counts as functional, organism-based.
The subject of experiment [2] is Mus musculus. The experiment in a line: Antidiabetic activity in diet-induced obese C57BL/6J mouse assessed as decrease in plasma insulin level at 250 to 500 nmol/kg, sc bid for 14 days fasted overnight on day 11 to 12 and measured on day 14. It counts as functional, organism-based.
Experiment [3] concerns Mus musculus. The experiment in a line: In vivo agonist activity at GLP2R in diet-induced obese C57BL/6J mouse assessed as increase in small intestinal wet weight at 250 to 500 nmol/kg, sc bid for 14 days. Format: functional, organism-based.
The test system of the next experiment is Rattus norvegicus. The experiment in a line: In vivo agonist activity at GLP2R in Wistar rat assessed as increase in small intestinal wet weight administered sc once daily for 4 days measured on day 5. It counts as functional, organism-based.
Experiment [4] has as its system Mus musculus. The experiment in a line: In vivo agonist activity at GLP2R in diet-induced obese C57BL/6J mouse assessed as increase in large intestinal wet weight at 250 to 500 nmol/kg, sc bid for 14 days. It counts as functional, organism-based.
Experiment [5] relates to Mus musculus. The experiment in a line: Antidiabetic activity in diet-induced obese C57BL/6J mouse assessed as decrease in insulin resistance by measuring lower HOMA-IR index at 250 to 500 nmol/kg, sc bid for 14 days fasted overnight on day 11 to 12 and measured on day 14. It counts as functional, organism-based.
Experiment [6] deals with Mus musculus. The experiment in a line: Antidiabetic activity in C57BL/6J mouse assessed as reduction in blood glucose level at 1000 nmol/kg, sc administered as single dose 1 hr prior to glucose challenge measured up to 120 mins post glucose challenge by OGTT. It counts as functional, organism-based.
Experiment [7] concerns the target T1, Glucagon-like peptide 2 receptor (Homo sapiens, UniProt O95838).
T1 sequence (O95838 whole entry): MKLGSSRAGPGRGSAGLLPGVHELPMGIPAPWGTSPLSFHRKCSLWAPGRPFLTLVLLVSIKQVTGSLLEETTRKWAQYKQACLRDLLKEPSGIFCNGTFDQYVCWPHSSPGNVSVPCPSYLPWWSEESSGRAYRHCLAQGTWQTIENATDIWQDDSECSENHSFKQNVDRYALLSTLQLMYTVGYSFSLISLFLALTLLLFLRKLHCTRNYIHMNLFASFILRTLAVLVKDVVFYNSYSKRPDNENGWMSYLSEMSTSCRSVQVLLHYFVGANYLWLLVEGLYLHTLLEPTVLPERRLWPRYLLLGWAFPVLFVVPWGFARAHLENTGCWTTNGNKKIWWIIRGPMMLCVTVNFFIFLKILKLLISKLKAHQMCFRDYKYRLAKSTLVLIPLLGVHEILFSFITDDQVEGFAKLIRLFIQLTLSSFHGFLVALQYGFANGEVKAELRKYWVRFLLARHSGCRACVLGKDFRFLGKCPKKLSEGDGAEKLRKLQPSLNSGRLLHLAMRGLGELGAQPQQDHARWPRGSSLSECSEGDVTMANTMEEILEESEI
Kind of experiment: Agonist activity at human GLP2 receptor expressed in HEK293 cells assessed as increase in intracellular cAMP accumulation by AlphaScreen assay. Format: functional, cell-based. On the technique in general: Cyclic AMP is a second messenger, typically raised through Gs and lowered through Gi signalling.

Activity calls are given as the source filed them. The calls are words filed in the database; no cut-off is given here. Non-standard residues stand in square brackets, D forms with d. Residues, ends and D or L forms follow the SMILES beside them. Aib = CC(C)(N)C(=O)O

On to H-HGDGSFSSELATILDGKAARDFINWLIQTKITD-OH, for which the outcome with Mus musculus [1], in the experiment on Mus musculus [2], with Mus musculus [3], in the experiment on Mus musculus [4] and with Mus musculus [5] was Active. In addition, in the experiment on Rattus norvegicus, the Activity result is “Dose-dependent effect”.

Consider H-HGDGSFSDEMNTILDGQAARDFINWLIQTK-NH2, for which the outcome in the experiment with Mus musculus [6] was Active.

One may read the EC50 as the concentration that produces a half-maximal response. Consider `CC[C@H](C)[C@H](NC(=O)[C@H](Cc1ccccc1)NC(=O)[C@H](CC(=O)O)NC(=O)[C@H](CCCNC(=N)N)NC(=O)[C@H](C)NC(=O)[C@H](C)NC(=O)[C@H](CCC(N)=O)NC(=O)[C@H](CC(N)=O)NC(=O)[C@H](CC(=O)O)NC(=O)[C@H](CC(C)C)NC(=O)[C@@H](NC(=O)[C@@H](NC(=O)[C@H](CC(N)=O)NC(=O)[C@H](CCSC)NC(=O)[C@H](CCC(=O)O)NC(=O)[C@H](CC(=O)O)NC(=O)[C@H](CO)NC(=O)[C@H](Cc1ccccc1)NC(=O)[C@H](CO)NC(=O)CNC(=O)[C@H](CC(=O)O)NC(=O)C(C)(C)N)[C@@H](C)O)[C@@H](C)CC)C(=O)N[C@@H](CC(N)=O)C(=O)N[C@@H](Cc1c[nH]c2ccccc12)C(=O)N[C@@H](CC(C)C)C(=O)N[C@H](C(=O)N[C@@H](CCC(N)=O)C(=O)N[C@H](C(=O)N[C@@H](CCCCN)C(=O)N[C@H](C(=O)N[C@H](C(=O)N[C@@H](CC(=O)O)C(=O)O)[C@@H](C)O)[C@@H](C)CC)[C@@H](C)O)[C@@H](C)CC` (H-[Aib]DGSFSDEMNTILDNQAARDFINWLIQTKITD-OH), for which, in experiment [7], the EC50 amounted to 0.12 nM.

The values are drawn from ChEMBL document CHEMBL4257228, “Glucagon-like-peptide-2 (glp-2) analogues” (2016).
